Key:
[1] = target: T1, nsVAO (vanillyl-alcohol oxidase from Novosphingobium sp.) (Novosphingobium sp., UniProt A0A3N9RU39); assay: X-ray structure; format: binding; conditions: non-covalently bound FAD
T1 construct: gene EH199_11270; SUMO tag cleaved for crystals; non-covalent FAD
T1 sequence (A0A3N9RU39 1-543): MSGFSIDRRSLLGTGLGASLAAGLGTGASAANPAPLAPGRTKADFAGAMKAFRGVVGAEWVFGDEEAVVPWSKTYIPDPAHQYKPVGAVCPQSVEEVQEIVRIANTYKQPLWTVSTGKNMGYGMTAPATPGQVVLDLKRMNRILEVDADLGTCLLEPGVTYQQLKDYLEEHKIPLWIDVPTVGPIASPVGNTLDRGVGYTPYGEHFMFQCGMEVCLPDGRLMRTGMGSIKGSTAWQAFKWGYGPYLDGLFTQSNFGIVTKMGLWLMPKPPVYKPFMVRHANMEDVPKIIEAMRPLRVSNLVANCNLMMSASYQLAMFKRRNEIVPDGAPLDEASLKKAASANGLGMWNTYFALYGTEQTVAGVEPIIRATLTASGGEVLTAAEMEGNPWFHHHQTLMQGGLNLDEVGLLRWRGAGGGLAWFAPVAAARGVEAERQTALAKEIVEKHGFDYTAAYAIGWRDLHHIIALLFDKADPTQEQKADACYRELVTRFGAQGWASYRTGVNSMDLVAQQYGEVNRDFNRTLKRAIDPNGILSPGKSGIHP

[2] = target: T2, VAD (vanillyl-alcohol dehydrogenase from Marinicaulis flavus) (Hyphococcus luteus, UniProt A0A2S7K3M2); assay: X-ray structure; format: binding; conditions: covalent (H387)
T2 construct: gene CW354_13745; SUMO tag cleaved for crystals; covalent FAD on H387; dimer
T2 sequence (A0A2S7K3M2 1-521): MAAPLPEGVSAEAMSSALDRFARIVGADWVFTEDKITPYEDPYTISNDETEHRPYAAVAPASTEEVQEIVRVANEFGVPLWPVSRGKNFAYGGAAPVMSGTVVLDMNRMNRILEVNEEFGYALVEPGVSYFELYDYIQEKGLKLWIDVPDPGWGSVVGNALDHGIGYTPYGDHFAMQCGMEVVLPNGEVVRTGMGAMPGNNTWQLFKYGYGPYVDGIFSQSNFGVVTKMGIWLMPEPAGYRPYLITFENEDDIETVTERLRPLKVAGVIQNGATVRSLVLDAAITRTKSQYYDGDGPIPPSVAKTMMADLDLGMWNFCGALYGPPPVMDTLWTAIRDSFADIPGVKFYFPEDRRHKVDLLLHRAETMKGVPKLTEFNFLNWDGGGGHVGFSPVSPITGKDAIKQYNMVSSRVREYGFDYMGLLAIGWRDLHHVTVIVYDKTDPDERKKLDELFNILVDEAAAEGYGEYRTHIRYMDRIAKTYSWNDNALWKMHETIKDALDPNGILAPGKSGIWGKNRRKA

[3] = target: T3, VAD (vanillyl-alcohol dehydrogenase from Marinicaulis flavus) (Hyphococcus luteus, UniProt A0A2S7K3M2, P151L); assay: X-ray structure of soaked crystal; format: binding; conditions: 1 mM eugenol soak, 2 min; active site, flavin si side
T3 construct: gene CW354_13745; SUMO tag cleaved for crystals; covalent FAD on H387; dimer

[4] = target: T2, VAD (vanillyl-alcohol dehydrogenase from Marinicaulis flavus); assay: anaerobic stopped-flow reductive half-reaction; format: biochemical; conditions: 25 °C, 50 mM potassium phosphate pH 7.5, 150 mM NaCl, oxidized enzyme
Excerpt: (§1) anaerobic stopped-flow reductive half-reaction on VAD (vanillyl-alcohol dehydrogenase from Marinicaulis flavus)

[5] = target: T3, VAD (vanillyl-alcohol dehydrogenase from Marinicaulis flavus); assay: anaerobic stopped-flow reductive half-reaction; format: biochemical; conditions: 25 °C, 50 mM potassium phosphate pH 7.5, 150 mM NaCl, oxidized enzyme
Excerpt: as §1

[6] = target: T1, nsVAO (vanillyl-alcohol oxidase from Novosphingobium sp.); assay: X-ray structure of soaked crystal; format: binding; conditions: […] vanillyl alcohol soak, […] min; active site

T3 sequence (A0A2S7K3M2 entry or part of it P151L): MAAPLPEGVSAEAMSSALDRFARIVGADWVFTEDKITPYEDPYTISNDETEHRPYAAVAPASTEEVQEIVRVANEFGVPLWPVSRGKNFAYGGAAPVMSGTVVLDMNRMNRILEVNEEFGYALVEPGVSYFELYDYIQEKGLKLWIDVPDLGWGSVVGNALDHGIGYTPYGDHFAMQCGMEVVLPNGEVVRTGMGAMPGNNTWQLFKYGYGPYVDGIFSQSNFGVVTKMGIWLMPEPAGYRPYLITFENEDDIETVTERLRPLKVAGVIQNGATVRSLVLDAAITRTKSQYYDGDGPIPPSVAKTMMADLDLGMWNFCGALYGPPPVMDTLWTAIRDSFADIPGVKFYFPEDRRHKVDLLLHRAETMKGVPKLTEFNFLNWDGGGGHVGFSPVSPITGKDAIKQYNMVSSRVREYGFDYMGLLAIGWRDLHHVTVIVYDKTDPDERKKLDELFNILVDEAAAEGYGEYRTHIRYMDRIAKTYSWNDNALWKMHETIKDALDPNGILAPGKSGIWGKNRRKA

**Q.** Which results are given for `Cc1cc2nc3c(=O)[nH]c(=O)nc-3n(C[C@H](O)[C@H](O)[C@H](O)COP(=O)(O)OP(=O)(O)OC[C@H]3O[C@@H](n4cnc5c(N)ncnc54)[C@H](O)[C@@H]3O)c2cc1C` [FAD]?
**A.** X-ray structure [1]: Its crystal structure confirms that FAD is non-covalently bound; X-ray structure [2]: FAD carbons are in yellow, wild-type carbons in orange

**Q.** With `C=CCc1ccc(O)c(OC)c1` [Eugenol] as the molecule, how does the “X-ray structure of soaked crystal” value [3] read?
**A.** P151L VAD-eugenol, wild type nsVAO-vanillyl alcohol and T181D nsVAO-vanillin complexes were prepared by soaking crystals

**Q.** With `COc1cc(CO)ccc1O` [Vanillyl alcohol] as the molecule, how does the Kd [4] read?
**A.** 24.2 ± 3.3 µM

**Q.** And the Kd [5]?
**A.** 1060 ± 80 µM

**Q.** What about the “X-ray structure of soaked crystal” value [6] of the same molecule?
**A.** Vanillyl alcohol bound to wild type nsVAO is shown with blue carbons.
